The test system of this series is mouse embryonic stem cells. The series is described as follows: MTT cell viability assay of tert-butyl hydroperoxide oxidative stress-induced cytotoxicity in mouse embryonic stem cells. It counts as cell-based. Conditions: for viability at 0.1 µM / viability at 0.5 µM / viability at 1 µM: Mus musculus, Embryonic stem cell, read-out: Ave. Cell Viability (%). As to the method: Oxidative stress and related free radical damage can be induced in cells, including stem cells, by exposing the cells to tert-butyl hydroperoxide in the incubation medium. Decomposition of the peroxide over a period of time leads to a steady generation of reactive oxygen species. This in turn triggers a cascade of free radical-mediated events that eventually leads to irreversible damage and ultimately cell death as the natural antioxidant defences are overwhelmed.
The extent of cytotoxicity induced by peroxide exposure can be quantified using a number of well-documented assays, including the MTT protocol. This is a colorometric assay that measures the reduction of MTT to formazan, a process that can only occur when cells are viable. Thus, by comparing the amount of formazan produced in control cells, against cells treated with a cytotoxic agent, such as tert-butyl hydroperoxide, the reduction in cell viability induced by the agent can be measured.
The assay can be further extended to determine the effectiveness of compounds to provide protection against cytotoxic agents. In the case of the novel antioxidants, the subject of this patent, this can be achieved by pre-incubation of the cells with the antioxidant agent prior to induction of oxidative stress by tert-butyl hydroperoxide. Thus a comparison of the amount of formazan produced by control cells against cells with the cytotoxic peroxide present, plus or minus pre-incubation with the novel antioxidant, can determine the extent by which the compound can retain cell viability.
A 96-well plate was seeded with approximately 20,000 mouse embryonic stem cells per well and left to grow at 37° C. (5% CO2) overnight. Antioxidants, denoted as Exp.1, Exp.2 and Exp.3, were dissolved in DMSO and added to the wells in triplicate 30 min before induction of oxidative stress with tert-butyl hydroperoxide. The resultant concentrations of the tested antioxidants in the wells were 0.1, 0.5 and 1 μM. Controls were also initiated using cell medium (DMEM^+)/DMSO. After the 30 min pre-incubation period, tert-butyl peroxide was added to the wells to provide a final concentration of 400 μM. The plated cells were returned to the incubator (37° C.) for 90 min. After this period, 20 μL of the MTT reagent solution was added to all of the wells. The plate was then further incubated for a further 3 hours. The supernatant was removed from the wells and 200 μl DMSO added to all wells to solubilise reduced MTT (formazan). The plate was protected from light and shaken for 10 min. The supernatant was removed from the wells and aliquoted into a new 96-well plate for the colorometric measurements. Absorbance was determined at 540 nm.
The average corrected absorbance. (0.737) for the DMEM^+ control (which contained no antioxidant compounds or tert-butyl hydroperoxide) represented the 100% viability benchmark. Comparison of the corrected absorbances in the various well treatment regimes relative to that of the DMEM^+ control enabled the resultant effects on cell viability to be calculated. tBHP=tert-butyl hydroperoxide.
Background: Tetrazolium dyes change colour on reduction, which living cells bring about.

The text below walks through data of patent publication US8188144B2, “In vitro preservation of living animal cells and compounds suitable for use in the preservation of living animal cells” (Antoxis Limited, priority 2007, dated 2012).

As a reminder, the viability is a per cent measure of how many cells are alive, often set against a control. As to `CCCCCCCCc1cc(=O)c(O)c(-c2cc(O)c(O)c(O)c2)o1` [Exp.3], the viability at 0.1 µM worked out at 34.4%, the viability at 0.5 µM amounted to 55.5% and the viability at 1 µM is 70.4%.
Take `CCCCCCCCCCCCc1cc(=O)c(O)c(-c2cc(O)c(O)c(O)c2)o1` [Exp.2]: the viability at 0.1 µM stood at 60.5%, the viability at 0.5 µM is 94.8% and the viability at 1 µM was 96.9%. The “Ave. Cell Viability (%)” value (mouse, 120 min, 1 μM) worked out at 104.1%.
In the case of `CCCCCCCCCCc1ccc2c(=O)c(O)c(-c3cc(O)c(O)c(O)c3)oc2c1` [Exp.1], the viability at 0.1 µM is 56.9%, the viability at 0.5 µM was 86.5% and the viability at 1 µM is 84.8%. The “Ave. Cell Viability (%)” value (mouse, 120 min, 1 μM) is on record as 107.4%.
Consider `CC(C)(C)OO` [tBHP, tert-butyl hydroperoxide, reference compound], for which the “Ave. Cell Viability (%)” value runs as follows: (400 μM tBHP alone, no antioxidant, 90 min, relative to DMEM+ control = 100%) 37.0%; (400 μM tBHP alone, no antioxidant, 90 min, relative to DMEM+ control = 100%, listed as tert-butyl hydroperoxide) 37%.
